Laboratory results reported in patent US5583020A, “Permeability enhancers for negatively charged polynucleotides” (Ribozyme Pharmaceuticals, Inc., priority 1993, dated 1996).
Read-outs that look alike come from different tables or passages of the source.

Experiments:
[1] = Diffusion of 32P-ribozyme across a liposome membrane (liposome-associated radioactivity); assay type: in vitro ADME
Source text: The ribozyme was a 36 mer containing five 2'-O-methyl riboses at the 5' end and the 3' end. The ratio of permeability enhancer molecules per mole of phosphate was about 20:1.

[2] = test system: HeLa cells; assay: Diffusion of 32P-ribozyme into HeLa cells (cell associated radioactivity); assay type: cell-based; details: 20 molecules enhancer per mole of ribozyme phosphate; pH about 4, diluted in DMEM without serum; 1 hour at 37° C., 5% CO2
Description: This example illustrates the ability of an enhancer to facilitate the diffusion of a ribozyme into HeLa cells. […] The sample was diluted up to 1 ml with DMEM media containing no serum and added to HeLa cells. A control was run containing ^32 P-ribozyme without enhancer. Cells were incubated for 1 hour at 37° C. in 5% CO2. The cells were washed 3 times with serum free media and solubilized with 0.5 ml of 1% triton.

[3] = not told
[4] = ratio of permeability enhancer per mole of phosphate about 20:1, pH about 4, 25° C., 15 minutes, 32P ribozyme (36 mer)

SMILES	% Liposome Associated [1]	% Liposome Associated [1, 4]	also measured
NCCCC(=O)O [Aminobutyric Acid]	0.53%		
NCCCCCC(=O)O [Aminocaproic Acid]		0.70%	
NCCCCCCCC(=O)O [Aminocaprylic Acid]		9.54%	degree of membrane association (in words) ([1]; ribozyme, enhancer to phosphate about 20:1): highest degree of membrane association; amount of cell associated radioactivity, enhancer:ribozyme versus ribozyme alone [2]: 3 fold; membrane association on increasing the ratio of enhancer to ribozyme (in words) [3]: concomitant increase in membrane association
O=C(O)/C=C/c1c[nH]cn1 [Urocanic Acid]	0.95%		
NCC(=O)O [glycine]		0.55%	
Nc1cccc(C(=O)O)c1 [m-Aminobenzoic Acid]	2.54%		
